“And” between values parts separate entries of the source, which are not always exact repeats. Equal values may be shown once. “Also recorded” adds a separate entry of the source.
Columns and labels:
diaphorase [1] = assay: Effect of concentrations of tetrazolium salts on formation of formazan dyes (FIGS. 4A-4G); assay type: biochemical; settings: 15 mM NADH+H, 20 μg diaphorase, pH 7.5; FIGS. 4A to 4G
Method: On the idea that higher concentrations of tetrazolium salts in the assay buffer would likely result in more formazan dyes in the reaction, various concentrations of tetrazolium salts were added to a reaction buffer and the formation of formazan dyes were measured at 0, 30 and 60 minutes. […] The reactions were performed at room temperature. Absorbance was taken at 0, 30 and 60 minutes.

diaphorase [2] = assay: Formation of formazan dyes: only diaphorase and malate (TABLE 14); assay type: biochemical, Clostridium kluyveri; settings: mean of three experiments
oral lavage [3] = assay: Formation of formazan dyes: oral lavage and 1-Methoxy PMS, absence of malate (TABLE 19); assay type: biochemical, human; settings: monosodium salt
[4] = Formation of formazan dyes: NADH and 1-methoxy PMS, absence of malate (TABLE 15); assay type: biochemical; settings: monosodium salt
[5] = Formation of formazan dyes: control buffer and 1-Methoxy PMS, absence of malate (TABLE 21); assay type: biochemical; settings: monosodium salt
diaphorase [6] = assay: Formation of formazan dyes: NADH, diaphorase and malate (TABLE 8); assay type: biochemical, Clostridium kluyveri
[7] = test system: Malate dehydrogenase and diaphorase; assay: Formation of formazan dyes: Malate dehydrogenase, diaphorase and malate (TABLE 10); assay type: biochemical, pig heart
oral lavage [8] = assay: Formation of formazan dyes: oral lavage, malate and diaphorase (TABLE 12); assay type: biochemical, human; settings: oral lavage, malate and diaphorase
[9] = Formation of formazan dyes: control buffer, malate and 1-Methoxy PMS (TABLE 22); assay type: biochemical
Malate dehydrogenase [10] = molecular target: T1, Malate dehydrogenase (Sus scrofa, UniProt P00346); assay: Formation of formazan dyes: Malate dehydrogenase and 1-Methoxy PMS, absence of malate (TABLE 17); assay type: biochemical, pig heart; set-up: L-malate dehydrogenase (pig heart); purchased Sigma-Aldrich 10127248001 / 10127914001
T1 sequence (P00346 25-338): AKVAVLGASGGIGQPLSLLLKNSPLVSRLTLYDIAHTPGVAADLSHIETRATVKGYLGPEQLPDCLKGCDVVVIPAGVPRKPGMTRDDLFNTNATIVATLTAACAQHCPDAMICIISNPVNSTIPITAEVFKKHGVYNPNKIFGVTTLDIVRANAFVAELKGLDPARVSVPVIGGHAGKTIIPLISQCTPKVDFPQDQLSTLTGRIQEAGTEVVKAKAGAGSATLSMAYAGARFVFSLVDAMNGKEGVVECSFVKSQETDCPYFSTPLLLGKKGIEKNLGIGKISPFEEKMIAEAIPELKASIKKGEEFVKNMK

[11] = Formation of formazan dyes: NADH, malate and 1-methoxy PMS (TABLE 16); assay type: biochemical; settings: monosodium salt
diaphorase [12] = assay: Formation of formazan dyes: NADH and diaphorase, absence of malate (TABLE 7); assay type: biochemical, Clostridium kluyveri; settings: NADH and diaphorase, absence of malate
oral lavage [13] = assay: Formation of formazan dyes: oral lavage and diaphorase, not malate (TABLE 11); assay type: biochemical, human
[14] = test system: Malate dehydrogenase and diaphorase; assay: Formation of formazan dyes: Malate dehydrogenase and diaphorase, absence of malate (TABLE 9); assay type: biochemical, pig heart
Malate dehydrogenase [15] = molecular target: T1, Malate dehydrogenase; assay: Formation of formazan dyes: Malate dehydrogenase, malate and 1-Methoxy PMS (TABLE 18); assay type: biochemical, pig heart; set-up: L-malate dehydrogenase (pig heart); purchased Sigma-Aldrich 10127248001 / 10127914001; settings: monosodium salt
diaphorase [16] = assay: Formation of formazan dyes: only diaphorase, not malate (TABLE 13); assay type: biochemical, Clostridium kluyveri; settings: mean of three experiments
oral lavage [17] = assay: Formation of formazan dyes: oral lavage, malate and 1-Methoxy PMS (TABLE 20); assay type: biochemical, human; settings: monosodium salt

COc1cc([N+](=O)[O-])ccc1-[n+]1nc(-c2ccccc2S(=O)(=O)O)nn1-c1ccc([N+](=O)[O-])cc1 [EZMTT]
concentration of tetrazolium salt at which absorbance reached peaks (diaphorase [1]): 2 mM

O=[N+]([O-])c1ccc(-[n+]2nc(-c3ccc(S(=O)(=O)[O-])cc3S(=O)(=O)[O-])nn2-c2ccc(I)cc2)cc1.[Na+] [WST-1, 2-(4-Iodophenyl)-3-(4-nitrophenyl)-5-(2,4-disulfophenyl)-2H-tetrazolium, monosodium salt]
Absorbance, formation of formazan dyes (Means) (diaphorase [2]; 0 h): 0.20 | Absorbance, formation of formazan dyes (Means) (diaphorase [2]; 1 h): 0.22 | Absorbance, formation of formazan dyes (Means) (diaphorase [2]; 2 h): 0.23 | Absorbance, formation of formazan dyes (Means) (diaphorase [2]; 3 h): 0.24 | Absorbance, formation of formazan dyes (Means) (diaphorase [2]; 4 h): 0.24 | Absorbance, formation of formazan dyes (Means) (diaphorase [2]; 6 h): 0.25 | Absorbance, formation of formazan dyes (Means) (diaphorase [2]; 8 h): 0.26 | Absorbance, formation of formazan dyes (Means) (diaphorase [2]; 10 h): 0.27 | Absorbance, formation of formazan dyes (Means) (diaphorase [2]; 12 h): 0.27 | Absorbance, formation of formazan dyes (Means) (oral lavage [3]): 1.19 and 1.52 and 1.61 and 1.76 | Absorbance, formation of formazan dyes (Means) [4]: 2.52 and 2.71 and 2.59 and 2.80 | Absorbance, formation of formazan dyes (Means) [5]: 0.53 and 0.74 and 0.65 and 0.88 | Formation of formazan dyes, absorbance, Means 0 h (diaphorase [6]; NADH, diaphorase and malate, 0 h): 2.63 | Formation of formazan dyes, absorbance, Means 1 h (diaphorase [6]; NADH, diaphorase and malate, 1 h): 2.60 | Formation of formazan dyes, absorbance, Means 2 h (diaphorase [6]; NADH, diaphorase and malate, 2 h): 2.59 | Formation of formazan dyes, absorbance, Means 3 h (diaphorase [6]; NADH, diaphorase and malate, 3 h): 2.57 | Formation of formazan dyes, absorbance, Means 4 h (diaphorase [6]; NADH, diaphorase and malate, 4 h): 2.55 | Formation of formazan dyes, absorbance, Means 6 h (diaphorase [6]; NADH, diaphorase and malate, 6 h): 2.52 | Formation of formazan dyes, absorbance, Means 8 h (diaphorase [6]; NADH, diaphorase and malate, 8 h): 2.48 | Formation of formazan dyes, absorbance, Means 10 h (diaphorase [6]; NADH, diaphorase and malate, 10 h): 2.44 | Formation of formazan dyes, absorbance, Means 12 h (diaphorase [6]; NADH, diaphorase and malate, 12 h): 2.38 | level reduced to formazan dyes in the presence of malate (diaphorase [6]; TABLE 8 compared with TABLE 7): lower level | Formation of formazan dyes, absorbance, Means 0 h ([7]; Malate dehydrogenase, diaphorase and malate, 0 h): 0.84 | Formation of formazan dyes, absorbance, Means 1 h ([7]; Malate dehydrogenase, diaphorase and malate, 1 h): 1.15 | Formation of formazan dyes, absorbance, Means 2 h ([7]; Malate dehydrogenase, diaphorase and malate, 2 h): 1.31 | Formation of formazan dyes, absorbance, Means 3 h ([7]; Malate dehydrogenase, diaphorase and malate, 3 h): 1.44 | Formation of formazan dyes, absorbance, Means 4 h ([7]; Malate dehydrogenase, diaphorase and malate, 4 h): 1.53 | Formation of formazan dyes, absorbance, Means 6 h ([7]; Malate dehydrogenase, diaphorase and malate, 6 h): 1.69 | Formation of formazan dyes, absorbance, Means 8 h ([7]; Malate dehydrogenase, diaphorase and malate, 8 h): 1.81 | Formation of formazan dyes, absorbance, Means 10 h ([7]; Malate dehydrogenase, diaphorase and malate, 10 h): 1.90 | Formation of formazan dyes, absorbance, Means 12 h ([7]; Malate dehydrogenase, diaphorase and malate, 12 h): 1.96 | conversion to reduced formazan dyes ([7]; malate dehydrogenase, diaphorase and malate (TABLE 10), monosodium salt): converted to reduced formazan dyes in a time-dependent fashion; also recorded: able to catalyze the reduction | Formation of formazan dyes, absorbance, Means 0 h (oral lavage [8]; 0 h): 0.88 | Formation of formazan dyes, absorbance, Means 1 h (oral lavage [8]; 1 h): 1.19 | Formation of formazan dyes, absorbance, Means 2 h (oral lavage [8]; 2 h): 1.19 | Formation of formazan dyes, absorbance, Means 3 h (oral lavage [8]; 3 h): 1.23 | Formation of formazan dyes, absorbance, Means 4 h (oral lavage [8]; 4 h): 1.39 | Formation of formazan dyes, absorbance, Means 6 h (oral lavage [8]; 6 h): 1.31 | Formation of formazan dyes, absorbance, Means 8 h (oral lavage [8]; 8 h): 1.52 | Formation of formazan dyes, absorbance, Means 10 h (oral lavage [8]; 10 h): 1.61 | Formation of formazan dyes, absorbance, Means 12 h (oral lavage [8]; 12 h): 1.75 | Means absorbance 0 h [9]: 0.31 | Means absorbance 1 h [9]: 0.31 | Means absorbance 2 h [9]: 0.32 | Means absorbance 3 h [9]: 0.32 | reduction by malate dehydrogenase alone (Malate dehydrogenase [10]): did not catalyze the reduction | Absorbance, formation of formazan dyes (Means) (Malate dehydrogenase [10]; monosodium salt): 0.51 and 0.71 and 0.59 and 0.90 | Absorbance, formation of formazan dyes (Means) [11]: 1.83 and 1.81 and 1.79 | Formation of formazan dyes, absorbance, Means 0 h (diaphorase [12]; 0 h): 3.54 | Formation of formazan dyes, absorbance, Means 1 h (diaphorase [12]; 1 h): 3.60 | Formation of formazan dyes, absorbance, Means 2 h (diaphorase [12]; 2 h): 3.59 | Formation of formazan dyes, absorbance, Means 3 h (diaphorase [12]; 3 h): 3.60 | Formation of formazan dyes, absorbance, Means 4 h (diaphorase [12]; 4 h): 3.59 | Formation of formazan dyes, absorbance, Means 6 h (diaphorase [12]; 6 h): 3.59 | Formation of formazan dyes, absorbance, Means 8 h (diaphorase [12]; 8 h): 3.55 | Formation of formazan dyes, absorbance, Means 10 h (diaphorase [12]; 10 h): 3.52 | Formation of formazan dyes, absorbance, Means 12 h (diaphorase [12]; 12 h): 3.45 | Formation of formazan dyes, absorbance, Means 0 h (oral lavage [13]; oral lavage and diaphorase, not malate, 0 h): 1.01 | Formation of formazan dyes, absorbance, Means 1 h (oral lavage [13]; oral lavage and diaphorase, not malate, 1 h): 1.24 | Formation of formazan dyes, absorbance, Means 2 h (oral lavage [13]; oral lavage and diaphorase, not malate, 2 h): 1.28 | Formation of formazan dyes, absorbance, Means 3 h (oral lavage [13]; oral lavage and diaphorase, not malate, 3 h): 1.30 | Formation of formazan dyes, absorbance, Means 4 h (oral lavage [13]; oral lavage and diaphorase, not malate, 4 h): 1.29 | Formation of formazan dyes, absorbance, Means 6 h (oral lavage [13]; oral lavage and diaphorase, not malate, 6 h): 1.42 | Formation of formazan dyes, absorbance, Means 8 h (oral lavage [13]; oral lavage and diaphorase, not malate, 8 h): 1.34 | Formation of formazan dyes, absorbance, Means 10 h (oral lavage [13]; oral lavage and diaphorase, not malate, 10 h): 1.31 | Formation of formazan dyes, absorbance, Means 12 h (oral lavage [13]; oral lavage and diaphorase, not malate, 12 h): 1.42 | reduction to formazan dyes by pooled oral lavage (oral lavage [13]; pooled oral lavage of high bleeder group, diaphorase, no added malate (TABLE 11)): partially reduced to formazan dyes | Formation of formazan dyes, absorbance, Means 0 h ([14]; Malate dehydrogenase and diaphorase, absence of malate, 0 h): 0.76 | Formation of formazan dyes, absorbance, Means 1 h ([14]; Malate dehydrogenase and diaphorase, absence of malate, 1 h): 1.13 | Formation of formazan dyes, absorbance, Means 2 h ([14]; Malate dehydrogenase and diaphorase, absence of malate, 2 h): 1.28 | Formation of formazan dyes, absorbance, Means 3 h ([14]; Malate dehydrogenase and diaphorase, absence of malate, 3 h): 1.38 | Formation of formazan dyes, absorbance, Means 4 h ([14]; Malate dehydrogenase and diaphorase, absence of malate, 4 h): 1.47 | Formation of formazan dyes, absorbance, Means 6 h ([14]; Malate dehydrogenase and diaphorase, absence of malate, 6 h): 1.60 | Formation of formazan dyes, absorbance, Means 8 h ([14]; Malate dehydrogenase and diaphorase, absence of malate, 8 h): 1.71 | Formation of formazan dyes, absorbance, Means 10 h ([14]; Malate dehydrogenase and diaphorase, absence of malate, 10 h): 1.78 | Formation of formazan dyes, absorbance, Means 12 h ([14]; Malate dehydrogenase and diaphorase, absence of malate, 12 h): 1.75 | reduction of tetrazolium dye in the absence of substrate malate ([14]; malate dehydrogenase and diaphorase (TABLE 9)): partially reduced | Absorbance, formation of formazan dyes (Means) (Malate dehydrogenase [15]): 0.51 and 0.64 and 0.72 and 0.79 | Absorbance, formation of formazan dyes (Means) (diaphorase [16]; 0 h): 0.41 | Absorbance, formation of formazan dyes (Means) (diaphorase [16]; 1 h): 0.60 | Absorbance, formation of formazan dyes (Means) (diaphorase [16]; 2 h): 0.66 | Absorbance, formation of formazan dyes (Means) (diaphorase [16]; 3 h): 0.69 | Absorbance, formation of formazan dyes (Means) (diaphorase [16]; 4 h): 0.70 | Absorbance, formation of formazan dyes (Means) (diaphorase [16]; 6 h): 0.71 | Absorbance, formation of formazan dyes (Means) (diaphorase [16]; 8 h): 0.73 | Absorbance, formation of formazan dyes (Means) (diaphorase [16]; 10 h): 0.69 | Absorbance, formation of formazan dyes (Means) (diaphorase [16]; 12 h): 0.67 | Absorbance, formation of formazan dyes (Means) (oral lavage [17]): 1.20 and 1.68 and 2.01 and 2.32

From patent US20180320217A1, “METHODS FOR SAMPLING AND MEASURING ORAL LAVAGE PROTEINS” (The Procter & Gamble Company, priority 2017, published 2018)
